The values below come from publication PMC4490944 (Journal of immunology (Baltimore, Md. : 1950), 2015).

No end group written: not given here. Alexa 488 = Alexa-488 fluorophore (from tetrafluorophenyl ester) on the Lys side-chain amine

The subject of one data set is MHC II. The following applies: cited from earlier work.
Data set [1] deals with T1, HLA-DR1 (DR1) (DRA*0101/DRB1*010101) (Homo sapiens, UniProt P01903+P01911, A100R/D57E/F55L/F60I/F76Y/I96L/L162R/M171V/P40L/Q125E/R42F/V115G/Y59C). Kind of data set: MHC II stabilization assay. Particulars: 1 μM DR1-W1A with 1 μM DM, or 1 μM DM and 50 μM W1A, 37 °C 1 hour, pH 5.5, Superdex200; at least four independent experiments.
The target of data set [2] is T1, HLA-DR1 (DR1) (DRA*0101/DRB1*010101). As to the kind of experiment: Numerical modeling. Particulars: best fit value, Scheme V; DM-MHC resolves into inactive MHC II in the absence of peptides; kept the same for HA and CLIP; 0.4 μM DR1, 0.4 μM DM. Type of data set: binding.
Data set [3] can be described thus: Peptide occupancy, quantitative amino acid analysis of acid-eluted material. Particulars: control DM sample.
The target in data set [4] is DM-MHC II intermediate (complex of HLA-DM with active peptide-free DR1) (human) (UniProt P28067). Kind of data set: fluorescence polarisation. (Polarisation of emitted light reports the rotation of a fluorescent probe.)

With Ac-GSDARFLRGYHQYA [W1A], the “susceptibility to DM-mediated peptide release” value in the data set on MHC II (DR1-bound) is given as “extremely susceptible to DM-mediated peptide release”. Also, in data set [1], the “inhibition of aggregation of DR1 loaded with weakly binding peptide W1A” value is listed as “Excess of peptides but not DM could inhibit the aggregation of MHC II”.
For Ac-VSKMRMATPLLMQ [CLIP], the “intrinsic and DM-catalyzed dissociation half-life” value with MHC II (as previously reported) is recorded as ~ 5 hours. The same molecule registered a k5 in data set [2] of 0.36 min⁻¹.
Consider “DM: soluble extracellular domains of recombinant DM expressed in Drosophila S2 cells”, for which the “amino acid content of acid-eluted material” value in data set [3] is 3.46 nmol amino acid per 50 nmol protein.

B1: Alexa488-labeled CLIP peptide (Ac-…) (peptide)
peptide: Ac-VSK(Alexa 488)MRMATPLLMQ
B1: in data set [4], the k6 (another combination that gives the same fit) is 47500 M⁻¹ s⁻¹, the k6 (peptide binds the intermediate DM-MHC to give DM-MHCpep') was 86800 M⁻¹ s⁻¹ and the k-6 (peptide leaves DM-MHCpep') turned out to be 0.022 min⁻¹.
